Reference: patent US4749568A, “Rubradirin treatment of methicillin-resistant staph” (The Upjohn Company, priority 1987, dated 1988)

Assays:
S. aureus UC6685 = assay: ED50 determination, mice infected intraperitoneally with S. aureus UC6685; format: in vivo, Staphylococcus aureus (infected mice, Charles Fisher #1); conditions: dosed 1 and 5 hr post infection, 10080 min
Description: (§1) Effective Dose50 (ED50) determinations were performed using standard methods. All mice (Charles Fisher #1, 20 g) were given sufficient S. aureus intraperitoneally (IP) to kill 90 to 100% of untreated mice. At least five dosage levels of antibiotics were employed per each ED50 determination. The antibiotic was administered subcutaneous (SQ) or orally at 1 and 5 hr post infection. The mice were monitored for one week with deaths being noted daily. The ED50 values were calculated by probit analysis.
(§2) ^1 The dose of drug in mg/kg of body weight required to protect 50% o
(§3) the infected animals. Drug was dosed one and five hours post infection
(§4) ^2 Paldimycin was dosed SQ.

S. aureus UC9213 = assay: ED50 determination, mice infected intraperitoneally with S. aureus UC9213; format: in vivo, Staphylococcus aureus (infected mice, Charles Fisher #1); conditions: dosed 1 and 5 hr post infection, 10080 min
Description: as §1, §2, §3, §4

S. aureus UC9271 = assay: ED50 determination, mice infected intraperitoneally with S. aureus UC9271; format: in vivo, Staphylococcus aureus (infected mice, Charles Fisher #1); conditions: dosed 1 and 5 hr post infection, 10080 min
Description: as §1, §2, §3, §4

Staphylococcus aureus [1] = assay: Susceptibility test of patient isolate; format: cell-based; conditions: isolate from patient, Examples 1 to 3
Description: It is known to those skilled in the art how to determine which Staphylococcus (aureus or epidermidis) infections are rubradirin-sensitiveand methicillin-resistant by use of standarad susceptibility tests. See, "Dilution Susceptibility Test: agar and macro-broth dilution procedures; Manual of Clinical Microbiology, Third Edition, American Society of Microbiology, 1980, Washington, D.C., p 453-458".
(§5) A 70 kg person has a fever of 103° F. and has symptoms of bacterial pneumonia infection. Standard laboratory tests isolate an organism which is identified as Staphylococcus aureus. […] The patient is given 1000 mg of rubradirin three times daily by mouth. The temperature over a short period goes to 98.6° F. and the clinical symptoms of pneumonia disappear.
(§6) A 60 kg patient has an infection on their arm following a severe burn. They have a 101° F. fever. Standard laboratory tests isolate an organism which is identified as Staphylococcus aureus. […] The patient is treated with a cream containing 3% rubradirin.
A 85 kg person has baceterial endocarditis with a fever of 104° F. Standard laboratory tests isolate an organism which is identified as Staphylococcus aureus. […] The patient is treated with an IV infusion of rubradirin (4.5 mg/ml) at a rate of 60 ml/hr for a dose of 76 mg/kg/day.

Staphylococcus aureus [2] = assay: Treatment of patient with bacterial pneumonia (Example 1); format: in vivo, Staphylococcus aureus (human patient); conditions: 70 kg male, 1000 mg three times daily by mouth
Description: as §5

Staphylococcus aureus [3] = assay: Topical treatment of patient with infected burn (Example 2); format: in vivo, Staphylococcus aureus (human patient); conditions: 60 kg female, cream containing 3% rubradirin
Description: as §6

[4] = test system: two clinical strains of S. aureus; conditions: cited from earlier work
[5] = test system: Multidrug-resistant staphylococci; conditions: Orthopedic Clinics of North America 15, 417 (1984); cited from earlier work

With `COc1ccc2c(O)c(NC(=O)c3cc(O[C@@H]4C[C@](C)([N+](=O)[O-])[C@@H](OC)[C@@H](C)O4)c(O)c(C(=O)O[C@H]4[C@H](O)C(=O)[C@]5(C)CNC6=C(O5)C(=O)c5c(cc(C)c(O)c5C(=O)/C(C)=C\[C@@H]4C)C6=O)n3)c(=O)oc2c1` [Rubradirin, rubradirin] the ED50 (S. aureus UC6685; SQ) was 4.7 mg/kg, the ED50 (S. aureus UC6685; oral) was 11.1 mg/kg and the ED50 (S. aureus UC9213; SQ) was 4.7 mg/kg. The ED50 (S. aureus UC9213; oral) was 1.6 mg/kg, the ED50 (S. aureus UC9271; SQ) was 23.1 mg/kg and the ED50 (S. aureus UC9271; oral) was 141 mg/kg. For the same compound, the “Susceptibility test results of the isolate” value (Staphylococcus aureus [1]) was “susceptible”, the “clinical symptoms of pneumonia” value (Staphylococcus aureus [2]) was “disappear” and the temperature (Staphylococcus aureus [2]; fever of 103° F. before) was 98.6 ° F. The inflammation (Staphylococcus aureus [3]) was “less inflammation”, the “wound infection and healing” value (Staphylococcus aureus [3]) was “the wound is not infected and appears to be healing much better” and the temperature (Staphylococcus aureus [3]; after 3 days, 101° F. fever before) was “goes to normal”. The in vitro activity ([4]; two clinical strains resistant to several antibiotics) was “had in vitro activity”.
In the case of `COc1cccc(OC)c1C(=O)N[C@@H]1C(=O)N2[C@@H]1SC(C)(C)[C@@H]2C(=O)O` [methicillin], the “Susceptibility test results of the isolate” value (Staphylococcus aureus [1]) is given as “resistant” and the “methicillin sensitivity of the strains” value ([4]; strains originally tested by Bhuyan et al, later study) is given as “sensitive”.
In the case of `CN[C@H](CC(C)C)C(=O)N[C@H]1C(=O)N[C@@H](CC(N)=O)C(=O)N[C@H]2C(=O)N[C@H]3C(=O)N[C@H](C(=O)N[C@H](C(=O)O)c4cc(O)cc(O)c4-c4cc3ccc4O)[C@H](O)c3ccc(c(Cl)c3)Oc3cc2cc(c3O[C@@H]2O[C@H](CO)[C@@H](O)[C@H](O)[C@H]2O[C@H]2C[C@](C)(N)[C@H](O)[C@H](C)O2)Oc2ccc(cc2Cl)[C@H]1O` [vancomycin], the susceptibility [5] is listed as “retained their susceptibility”.
Work on Paldimycin yielded an ED50 (S. aureus UC6685; SQ) of 8.1 mg/kg, an ED50 (S. aureus UC9213; SQ) of 12.7 mg/kg and an ED50 (S. aureus UC9271; SQ) of 20.5 mg/kg.
